Data as given in the supplement of paper PMC10307832.

What was measured:
Experiment in all cases: relative viability (nuclei count vs DMSO), 5 days (fraction); higher = more cells survive
Adavosertib + Lapatinib = compound: C=CCn1c(=O)c2cnc(Nc3ccc(N4CCN(C)CC4)cc3)nc2n1-c1cccc(C(C)(C)O)n1 [Adavosertib] + CS(=O)(=O)CCNCc1ccc(-c2ccc3ncnc(Nc4ccc(OCc5cccc(F)c5)c(Cl)c4)c3c2)o1 [Lapatinib] (partner 2 µM)
How it was run: (§1)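 Dosing by pin tool came one day after lung cancer cell lines were seeded in 1536-well plates, using either one drug or a fixed anchor-drug dose plus five library-drug doses (not always all listed) in √10 steps. After 5 days, nuclei were counted on 4× images. Relative viability is treated-well nuclei count divided by vehicle-well nuclei count, and values are medians of duplicate plates.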

Adavosertib + Pictilisib = compound: C=CCn1c(=O)c2cnc(Nc3ccc(N4CCN(C)CC4)cc3)nc2n1-c1cccc(C(C)(C)O)n1 [Adavosertib] + CS(=O)(=O)N1CCN(Cc2cc3nc(-c4cccc5[nH]ncc45)nc(N4CCOCC4)c3s2)CC1 [Pictilisib] (partner 1 µM)
How it was run: as §1

Nelarabine + Lapatinib = compound: COc1nc(N)nc2c1ncn2[C@@H]1O[C@H](CO)[C@@H](O)[C@@H]1O [Nelarabine] + CS(=O)(=O)CCNCc1ccc(-c2ccc3ncnc(Nc4ccc(OCc5cccc(F)c5)c(Cl)c4)c3c2)o1 [Lapatinib] (partner 2 µM)
How it was run: as §1

Nelarabine + Alpelisib = compound: COc1nc(N)nc2c1ncn2[C@@H]1O[C@H](CO)[C@@H](O)[C@@H]1O [Nelarabine] + Cc1nc(NC(=O)N2CCC[C@H]2C(N)=O)sc1-c1ccnc(C(C)(C)C(F)(F)F)c1 [Alpelisib] (partner 2 µM)
How it was run: as §1

Cell Line | relative viability (Adavosertib + Lapatinib; first compound 0.01 µM) | relative viability (Adavosertib + Lapatinib; first compound 0.03162 µM) | relative viability (Adavosertib + Lapatinib; first compound 0.1 µM) | relative viability (Adavosertib + Lapatinib; first compound 0.3162 µM) | relative viability (Adavosertib + Pictilisib; first compound 0.01 µM) | relative viability (Adavosertib + Pictilisib; first compound 0.03162 µM) | relative viability (Adavosertib + Pictilisib; first compound 0.1 µM) | relative viability (Adavosertib + Pictilisib; first compound 0.3162 µM) | relative viability (Nelarabine + Lapatinib; first compound 0.01 µM) | relative viability (Nelarabine + Lapatinib; first compound 0.03162 µM) | relative viability (Nelarabine + Lapatinib; first compound 0.1 µM) | relative viability (Nelarabine + Lapatinib; first compound 0.3162 µM) | relative viability (Nelarabine + Lapatinib; first compound 1 µM) | relative viability (Nelarabine + Alpelisib; first compound 0.01 µM) | relative viability (Nelarabine + Alpelisib; first compound 0.03162 µM) | relative viability (Nelarabine + Alpelisib; first compound 0.1 µM) | relative viability (Nelarabine + Alpelisib; first compound 0.3162 µM) | relative viability (Nelarabine + Alpelisib; first compound 1 µM)
NCI-H1355 | 0.955 | 1.02 | 0.966 | 0.948 | 0.476 | 0.404 | 0.45 | 0.378 | 1.14 | 0.7 | 0.929 | 0.993 | 1.07 | 1.09 | 0.615 | 0.813 | 0.894 | 0.801
COR-L 105 | 0.361 | 0.428 | 0.373 | 0.349 | 0.415 | 0.384 | 0.356 | 0.393 | 0.362 | 0.306 | 0.374 | 0.285 | 0.368 | 1.15 | 1.11 | 1.03 | 1.3 | 0.985
201T | 1.02 | 1.01 | 1.02 | 1.09 | 0.668 | 0.683 | 0.625 | 0.654 | 1.05 | 1.02 | 0.999 | 1.09 | 1.1 | 1.06 | 1.02 | 0.968 | 1.03 | 1
NCI-H838 | 0.975 | 0.921 | 0.976 | 1.07 | 0.446 | 0.411 | 0.449 | 0.485 | 1.38 | 1.07 | 0.934 | 1.16 | 1.14 | 1.29 | 0.769 | 1.07 | 1.11 | 1.02
CAL-12T |  | 0.678 | 0.598 | 0.464 |  | 0.396 | 0.412 | 0.274 | 0.699 | 0.743 | 0.611 | 0.685 | 0.688 | 1.86 | 1.48 | 1.16 | 1.4 | 1.37
NCI-H1755 | 1.12 | 1.02 | 1.04 | 1.09 | 0.433 | 0.451 | 0.4 | 0.326 | 1.27 | 0.937 | 1.09 | 1.29 | 1.1 | 1.13 | 0.879 | 0.984 | 1.15 | 1.08
LCLC-103H |  |  |  |  | 0.544 | 0.517 | 0.561 | 0.516 |  |  |  |  |  | 1.01 | 0.989 | 0.985 | 0.936 | 0.956
NCI-H1666 | 0.618 | 0.667 | 0.65 | 0.575 | 0.5 | 0.324 | 0.309 | 0.403 | 0.711 | 0.604 | 0.57 | 0.675 | 0.646 | 0.99 | 0.917 | 0.957 | 1.05 | 0.883
LC-2-ad | 0.964 | 0.954 | 0.991 | 0.906 | 0.455 | 0.587 | 0.424 | 0.37 | 1.28 | 1.03 | 0.991 | 1.06 | 1.08 | 0.959 | 0.825 | 0.937 | 0.734 | 0.928
PC-3 [JPC-3] | 0.445 | 0.418 | 0.47 | 0.429 | 0.719 | 0.775 | 0.725 | 0.865 | 0.508 | 0.373 | 0.439 | 0.451 | 0.436 | 1.14 | 0.993 | 1.06 | 1.05 | 0.986
